In PubChem BioAssay (NCI) one finds TGI data, which are given here for one compound.

Test systems include DLD-1 colon; P388 leukemia; P388/ADR leukemia.
Holding throughout (assay): NCI tumour cell line growth inhibition, 48 h

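Step 1: Grow cells in 96-well plates. Step 2: Expose to compound for 48 hours at 5 concentrations. Step 3: Interpolate endpoints linearly; if unreached, use highest concentration. TGI marks complete inhibition of growth.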

`c1ccc(C(c2ccccc2)[P+](c2ccccc2)(c2ccccc2)c2ccccc2)cc1`: the TGI in the test with DLD-1 colon came to 14.2 µM; in the test on P388 leukemia, 1.89 µM; in the test on P388/ADR leukemia it was 31.8 µM.
